The text below walks through data of patent US7868019B2, “Dermatitis treating agent” (Mitsubishi Tanabe Pharma Corporation, priority 2005, dated 2011).

For one test, the system named is Contact Dermatitis Model. The test is described as follows: Contact dermatitis model (oxazolone sensitization and challenge, ear swelling). Type of test: in vivo, BALB/c male mice. As to conditions: BALB/c mice, oxazolone-sensitized; topical challenge on right ear at Day 7 with 0.5% oxazolone containing 1% (w/v) test compound; ear thickness 24 hours after challenge vs control. As to the method:
(1) Effects of Test Compounds in Contact Dermatitis Model (Method) BALB/c male mice (BALB/c AnNCrlCrlj, 5-weeks old, acclimating term: one week, body weight: 20 to 30 g, one group: 4 to 6 mice, available from CHARLES RIVER LABORATORIES JAPAN, INC.) were sensitized by epicutaneous application of 100 μL 0.5% (w/v) oxazolone solution (Solvent: acetone) on the shaved abdomen (Day 0). At the 7th day (Day 7) after sensitization, mice were challenged on both sides of right ears by topical application of 20 μL (10 μL for each side) 0.5% (w/v) oxazolone solution containing 1% (w/v) of respective test compounds (Solvent: acetone or an equal amount mixture of acetone/ethanol). Ear thickness was measured before and 24 hours after challenge by using a thickness gauge. In the control group, sensitized animals were challenged with 20 μL 0.5% (w/v) oxazolone solution containing no test compound (Solvent: acetone) on right ears. Effects of the respective test compounds were expressed as ear swelling inhibitory rate (%) given by the following formula. Ear swelling inhibitory rate (%)=[1−(mean ear swelling of group treated with test compound/mean ear swelling of control group)]×100 Note) Ear swelling=Ear thickness 24 hours after challenge at Day 7−Ear thickness before challenge at Day 7 (2) Effects of Test Compounds on Dermatitis Models Induced by Repeated Topical Application of Hapten (Method)

Test [1] has as its system Dermatitis Models Induced by Repeated Topical Application of Hapten. Nature of the test: Dermatitis model induced by repeated topical application of hapten (oxazolone, ear swelling). As to conditions: BALB/c mice; repeated topical challenge (Day 0, 2, 4, 7, 9) with 0.5% oxazolone containing 1% (w/v) test compound; ear thickness 24 hours after final challenge at Day 9 vs control. The test is classed as in vivo, BALB/c male mice. The method, then: Effects of the respective test compounds were expressed as ear swelling inhibitory rate (%) given by the following formula. Ear swelling inhibitory rate (%)=[1−(mean ear swelling of group treated with test compound/mean ear swelling of control group)]×100 Note) Ear swelling=Ear thickness 24 hours after challenge at Day 7−Ear thickness before challenge at Day 7 (2) Effects of Test Compounds on Dermatitis Models Induced by Repeated Topical Application of Hapten (Method) […], BALE/c male mice (BALB/c AnNCrlCrlj, 5-weeks old, acclimating term: one week, body weight: 20 to 30 g, one group: 4 to 6 mice, available from CHARLES RIVER LABORATORIES JAPAN, INC.) were sensitized on both sides of right ears by a topical application of 20 μL (10 μL for each side) 0.5% (w/v) oxazolone solution (Solvent: acetone)(Day−7). At the respective points of the 7th day (Day 0), 9th day (Day 2), 11th day (Day 4), 14th day (Day 7) and 16th day (Day 9) after sensitization, mice were challenged on the both sides of right ears by topical application of 20 μL (10 μL for each side) 0.5% (w/v) oxazolone solution containing 1% (w/v) of the respective test compounds (Solvent: acetone or an equal amount mixture of acetone/ethanol). Ear thickness was measured before challenge of the test compound solution or suspension by using a thickness gauge. At the final day (Day 9), ear thickness was measured also 24 hours after challenge. In control group, sensitized animals were challenged with 20 μL 0.5% (w/v) oxazolone solution containing no test compound (Solvent: acetone) on right ears. Effects of the respective test compounds were expressed as ear swelling inhibitory rate (%) given by following formula. Ear swelling inhibitory rate (%)=[1−(mean ear swelling of group treated with test compound/mean ear swelling of control group)]×100 Note) Ear swelling=(Thickness of ear 24 hours after final challenge at Day 9)−(Thickness of ear before sensitization at Day−7)

Consider `COc1cc2cc(CO)c(CO)c(-c3ccnc(-n4nc(-c5cccnc5)c5cc(OC)c(OC)cc5c4=O)c3)c2cc1OC` [(10), 1-[2-[6,7-dimethoxy-4-(3-pyridyl)phthalazin-1(2H)-one-2-yl]pyridin-4-yl]-2,3-bis(hydroxymethyl)-6,7-dimethoxy-naphthalene], for which the “Ear swelling inhibitory rate (%) Contact dermatitis model” value in the test on Contact Dermatitis Model was 66.0%.

Regarding “(3S)-1-[2-[4-(dimethylaminophenyl)phthalazin-1(2H)-one-2-yl]pyridin-4-yl]-3,4-dihydro-3-hydroxymethyl-6,7-dimethoxy-isoquinoline [(11)]”, the “Ear swelling inhibitory rate (%) Dermatitis model induced by repeated application of Hapten” value in test [1] is recorded as 51.0%. In addition, in the test with Contact Dermatitis Model, the “Ear swelling inhibitory rate (%) Contact dermatitis model” value was 69.0%.

Consider “1-[2-[4-(dimethylaminophenyl)phthalazin-1(2H)-one-2-yl]-pyridin-4-yl]-2,3-bis(hydroxymethyl)-6,7-dimethoxy-naphthalene [(9)]”, for which the “Ear swelling inhibitory rate (%) Dermatitis model induced by repeated application of Hapten” value in test [1] worked out at 60.0%. Besides, the “Ear swelling inhibitory rate (%) Contact dermatitis model” value in the test on Contact Dermatitis Model is 52.0%.

Regarding `COc1cc2cc(CO)c(CO)c(-c3ccnc(-n4c(=O)cc(NCCCNC5CCCCC5)c5ccccc54)c3)c2cc1OC` [(8), 1-[2-[1,2-dihydro-4-[3-(cyclohexylamino)propylamino]-2-oxoquinolin-1-yl]pyridin-4-yl]-2,3-bis(hydroxymethyl)-6,7-dimethoxynaphthalene], the “Ear swelling inhibitory rate (%) Dermatitis model induced by repeated application of Hapten” value in test [1] is on record as 37.0%. The “Ear swelling inhibitory rate (%) Contact dermatitis model” value in the test on Contact Dermatitis Model was 75.0%.
